{"source": "ChEMBL document CHEMBL1201862", "about": "“PubChem BioAssay data set” (2004)", "key": {"[1]": {"biological_target": "T1, Kappa-type opioid receptor (Homo sapiens, UniProt P41145)", "T1 sequence (P41145 whole entry)": "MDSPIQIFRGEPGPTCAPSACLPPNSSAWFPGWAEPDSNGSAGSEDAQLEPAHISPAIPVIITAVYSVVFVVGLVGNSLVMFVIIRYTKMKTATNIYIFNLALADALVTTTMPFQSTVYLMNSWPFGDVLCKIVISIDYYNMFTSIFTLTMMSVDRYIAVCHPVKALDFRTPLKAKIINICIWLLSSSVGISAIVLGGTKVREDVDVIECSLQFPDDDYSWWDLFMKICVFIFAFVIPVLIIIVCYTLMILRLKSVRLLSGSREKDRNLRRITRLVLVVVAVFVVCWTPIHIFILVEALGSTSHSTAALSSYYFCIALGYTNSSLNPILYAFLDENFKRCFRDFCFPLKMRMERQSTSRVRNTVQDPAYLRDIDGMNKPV", "experiment": "SAR analysis of small molecule agonists of the kappa opioid receptor via a luminescent beta-arrestin assay. [Related pubchem assays (depositor defined):AID1777, AID1786, AID1966, AID2133, AID2136, AID2348, AID2352, AID2357, AID2359, AID2370, AID2420, AID2478, AID2491, AID2492, AID2493, AID2497, AID2498, AID2500, AID449737, AID488822, AID488842]", "type": "functional"}, "[2]": {"biological_target": "T1, Kappa-type opioid receptor", "experiment": "kappa opioid receptor activation potency – imaging, image-based, SAR follow-up (AID 2359)", "type": "functional"}, "Mu-type opioid receptor [3]": {"biological_target": "T2, Mu-type opioid receptor (Homo sapiens, UniProt P35372)", "T2 sequence (P35372 whole entry)": "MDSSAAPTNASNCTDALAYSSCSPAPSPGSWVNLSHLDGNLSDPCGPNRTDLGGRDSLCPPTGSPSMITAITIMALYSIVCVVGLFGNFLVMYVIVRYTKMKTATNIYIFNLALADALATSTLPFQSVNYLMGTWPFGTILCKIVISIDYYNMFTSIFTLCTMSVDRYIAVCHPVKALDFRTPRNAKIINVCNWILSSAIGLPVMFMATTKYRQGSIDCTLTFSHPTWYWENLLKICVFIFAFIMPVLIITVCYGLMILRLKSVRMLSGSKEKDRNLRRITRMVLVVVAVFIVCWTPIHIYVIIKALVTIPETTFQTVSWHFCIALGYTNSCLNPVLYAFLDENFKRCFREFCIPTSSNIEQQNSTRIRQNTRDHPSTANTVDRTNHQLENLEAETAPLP", "experiment": "mu opioid receptor activators, image-based, SAR follow-up (AID 2352)", "type": "functional"}, "[4]": {"biological_target": "T3, Delta-type opioid receptor (Homo sapiens, UniProt P41143)", "T3 sequence (P41143 whole entry)": "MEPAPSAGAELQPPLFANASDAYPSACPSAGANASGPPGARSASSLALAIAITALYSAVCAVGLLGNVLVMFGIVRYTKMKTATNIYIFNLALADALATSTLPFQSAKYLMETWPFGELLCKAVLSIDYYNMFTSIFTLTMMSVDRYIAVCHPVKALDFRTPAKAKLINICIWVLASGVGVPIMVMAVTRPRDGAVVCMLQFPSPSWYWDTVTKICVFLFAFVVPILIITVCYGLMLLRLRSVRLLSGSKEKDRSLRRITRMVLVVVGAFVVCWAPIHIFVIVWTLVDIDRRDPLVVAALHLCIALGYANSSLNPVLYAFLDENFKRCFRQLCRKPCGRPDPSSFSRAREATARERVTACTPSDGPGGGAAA", "experiment": "delta opioid receptor blockers – image-based, SAR follow-up (AID 2357)", "type": "functional"}, "Mu-type opioid receptor [5]": {"biological_target": "T2, Mu-type opioid receptor", "experiment": "mu opioid receptor blockers – image-based, SAR follow-up (AID 2420);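 further: compounds added before stimulation of receptor with agonist DAMGO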", "type": "functional"}, "[6]": {"biological_target": "T1, Kappa-type opioid receptor", "experiment": "kappa opioid receptor blockers, image-based, SAR follow-up (AID 2348)", "type": "functional"}, "[7]": {"biological_target": "T3, Delta-type opioid receptor", "experiment": "DOR agonists, SAR follow-up, image-based (AID 2370)", "type": "functional"}, "[8]": {"biological_target": "T4, E3 ubiquitin-protein ligase XIAP (Homo sapiens, UniProt P98170)", "T4 sequence (P98170 whole entry)": "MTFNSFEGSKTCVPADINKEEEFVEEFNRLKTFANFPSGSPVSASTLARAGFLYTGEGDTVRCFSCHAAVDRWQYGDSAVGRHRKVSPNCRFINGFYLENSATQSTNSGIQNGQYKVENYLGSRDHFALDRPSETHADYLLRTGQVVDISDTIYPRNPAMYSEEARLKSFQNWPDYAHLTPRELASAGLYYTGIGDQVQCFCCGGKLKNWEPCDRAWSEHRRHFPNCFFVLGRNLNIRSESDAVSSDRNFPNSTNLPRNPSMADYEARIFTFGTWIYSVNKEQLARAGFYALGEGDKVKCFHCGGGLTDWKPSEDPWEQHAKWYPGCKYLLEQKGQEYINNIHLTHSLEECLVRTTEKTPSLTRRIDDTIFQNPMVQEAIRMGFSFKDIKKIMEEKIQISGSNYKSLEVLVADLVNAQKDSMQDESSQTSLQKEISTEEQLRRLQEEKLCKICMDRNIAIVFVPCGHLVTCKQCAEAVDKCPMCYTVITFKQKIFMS", "experiment": "SAR analysis of Antagonists of IAP-family anti-apoptotic proteins. [Related pubchem assays (depositor defined):AID1018, AID1449, AID1513, AID1514, AID1638]"}, "[9]": {"biological_target": "T4, E3 ubiquitin-protein ligase XIAP", "experiment": "SAR analysis of Antagonists of XIAP-Bir3 domain of IAP-family anti-apoptotic proteins. [Related pubchem assays (depositor defined):AID1018, AID1449, AID1513, AID1514, AID1638]"}, "Cannabinoid receptor 2 [10]": {"biological_target": "T5, Cannabinoid receptor 2 (Homo sapiens, UniProt P34972)", "T5 sequence (P34972 whole entry)": "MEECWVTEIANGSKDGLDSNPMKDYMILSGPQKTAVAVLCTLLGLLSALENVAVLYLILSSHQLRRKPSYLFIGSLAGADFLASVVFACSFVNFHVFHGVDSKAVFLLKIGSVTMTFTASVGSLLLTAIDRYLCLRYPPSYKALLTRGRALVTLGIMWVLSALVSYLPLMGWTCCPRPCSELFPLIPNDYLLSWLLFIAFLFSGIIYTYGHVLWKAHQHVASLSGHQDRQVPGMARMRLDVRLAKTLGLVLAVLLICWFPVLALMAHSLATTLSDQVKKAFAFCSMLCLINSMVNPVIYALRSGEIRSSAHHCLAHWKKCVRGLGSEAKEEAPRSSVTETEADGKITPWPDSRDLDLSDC", "experiment": "SAR analysis of agonists of the Cannabinoid Receptor 2 using an Image-Based Assay - Set 3. [Related pubchem assays (depositor defined):AID2013, AID2026]", "type": "functional"}, "Cannabinoid receptor 2 [11]": {"biological_target": "T5, Cannabinoid receptor 2", "experiment": "SAR analysis of antagonists of the Cannabinoid Receptor 2 using an Image-Based Assay - Set 3. [Related pubchem assays (depositor defined):AID2013, AID2026]", "type": "functional"}, "Cannabinoid receptor 1 [12]": {"biological_target": "T6, Cannabinoid receptor 1 (Homo sapiens, UniProt P21554)", "T6 sequence (P21554 whole entry)": "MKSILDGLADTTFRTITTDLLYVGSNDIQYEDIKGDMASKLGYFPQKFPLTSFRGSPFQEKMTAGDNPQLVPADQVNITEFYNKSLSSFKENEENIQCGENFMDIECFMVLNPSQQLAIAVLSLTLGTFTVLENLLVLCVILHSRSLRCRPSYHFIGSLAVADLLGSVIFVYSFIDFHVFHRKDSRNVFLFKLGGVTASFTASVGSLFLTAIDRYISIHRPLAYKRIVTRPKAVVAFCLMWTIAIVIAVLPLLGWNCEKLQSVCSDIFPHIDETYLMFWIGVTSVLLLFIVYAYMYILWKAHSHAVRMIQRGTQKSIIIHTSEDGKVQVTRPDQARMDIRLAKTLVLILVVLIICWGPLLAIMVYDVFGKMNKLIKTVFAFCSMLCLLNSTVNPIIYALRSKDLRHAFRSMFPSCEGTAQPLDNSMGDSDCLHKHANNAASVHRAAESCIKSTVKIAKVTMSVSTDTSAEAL", "experiment": "SAR analysis of antagonists of the Cannabinoid Receptor 1 using an Image-Based Assay - Set 4. [Related pubchem assays (depositor defined):AID2013, AID2026]", "type": "functional"}, "[13]": {"biological_target": "T7, G-protein coupled receptor 35 (Homo sapiens, UniProt Q9HC97)", "T7 sequence (Q9HC97 whole entry)": "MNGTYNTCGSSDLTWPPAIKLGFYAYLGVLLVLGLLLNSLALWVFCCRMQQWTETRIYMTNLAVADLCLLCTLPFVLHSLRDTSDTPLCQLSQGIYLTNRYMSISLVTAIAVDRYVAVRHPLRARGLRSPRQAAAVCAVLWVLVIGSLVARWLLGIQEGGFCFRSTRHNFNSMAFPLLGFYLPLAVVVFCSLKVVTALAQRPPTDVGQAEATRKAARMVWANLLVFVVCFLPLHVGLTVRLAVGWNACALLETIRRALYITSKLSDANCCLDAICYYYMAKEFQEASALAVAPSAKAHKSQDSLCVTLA", "experiment": "SAR analysis of Agonists of the GPR35 Receptor using an Image-Based Assay - Set 4. [Related pubchem assays (depositor defined):AID2013, AID2026]", "type": "functional"}, "[14]": {"biological_target": "G-protein coupled receptor 55 (Homo sapiens, UniProt Q9Y2T6)", "sequence (Q9Y2T6 whole entry)": "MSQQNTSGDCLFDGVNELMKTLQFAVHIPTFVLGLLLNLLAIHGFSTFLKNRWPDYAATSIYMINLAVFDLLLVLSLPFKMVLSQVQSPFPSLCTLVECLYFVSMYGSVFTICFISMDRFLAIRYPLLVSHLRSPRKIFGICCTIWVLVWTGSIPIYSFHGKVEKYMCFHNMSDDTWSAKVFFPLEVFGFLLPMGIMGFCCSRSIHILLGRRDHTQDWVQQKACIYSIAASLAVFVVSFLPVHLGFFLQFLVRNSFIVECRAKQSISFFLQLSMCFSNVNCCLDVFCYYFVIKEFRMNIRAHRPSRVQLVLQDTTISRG", "experiment": "SAR Analysis of Selective Antagonists of GPR55 using an Image-Based Assay - Set 4. [Related pubchem assays (depositor defined):AID2013, AID2026]", "type": "functional"}, "Cannabinoid receptor 1 [15]": {"biological_target": "T6, Cannabinoid receptor 1", "experiment": "SAR analysis of agonists of the Cannabinoid Receptor 1 using an Image-Based Assay - Set 4. [Related pubchem assays (depositor defined):AID2013, AID2026]", "type": "functional"}, "[16]": {"biological_target": "T7, G-protein coupled receptor 35", "experiment": "SAR analysis of Antagonists of the GPR35 Receptor using an Image-Based Assay - Set 6. [Related pubchem assays (depositor defined):AID2013, AID2026]", "type": "functional"}, "[17]": {"biological_target": "T1, Kappa-type opioid receptor", "experiment": "SAR analysis of Agonists of the Kappa Opioid Receptor (KOR) using an Image-Based Assay - Set 2. [Related pubchem assays (depositor defined):AID1777, AID1786, AID1966, AID2133, AID2136, AID2284, AID2285, AID2359]", "type": "functional"}, "[18]": {"biological_target": "T1, Kappa-type opioid receptor", "experiment": "SAR analysis of Antagonists of the Kappa Opioid Receptor (KOR) using an Image-Based Assay - Set 2. [Related pubchem assays (depositor defined):AID1777, AID1785, AID1786, AID1966, AID2133, AID2136, AID2284, AID2285, AID2348]", "type": "functional"}, "[19]": {"biological_target": "T3, Delta-type opioid receptor", "experiment": "SAR Analysis of Agonists of the DOR Receptor using an Image-Based Assay - Set 2. [Related pubchem assays (depositor defined):AID1777, AID1785, AID1786, AID1966, AID2133, AID2136, AID2284, AID2285, AID2370]", "type": "functional"}, "Mu-type opioid receptor [20]": {"biological_target": "T2, Mu-type opioid receptor", "experiment": "SAR Analysis of Antagonists of the MOR Receptor using an Image-Based Assay - Set 2. [Related pubchem assays (depositor defined):AID1777, AID1785, AID1786, AID1966, AID2133, AID2136, AID2284, AID2285, AID2420]", "type": "functional"}, "[21]": {"biological_target": "T1, Kappa-type opioid receptor", "experiment": "kappa opioid receptor blockade potency – cell-based, luminescence, set 2, SAR follow-up (AID 2495)", "type": "functional"}, "[22]": {"biological_target": "T1, Kappa-type opioid receptor", "experiment": "SAR analysis of small molecule agonists of the kappa opioid receptor via a luminescent beta-arrestin assay - Set 2. [Related pubchem assays (depositor defined):AID1777, AID1785, AID1786, AID1966, AID2133, AID2136, AID2284, AID449737]", "type": "functional"}, "Mu-type opioid receptor [23]": {"biological_target": "T2, Mu-type opioid receptor", "experiment": "SAR Analysis of Agonists of the MOR Receptor using an Image-Based Assay - Set 2. [Related pubchem assays (depositor defined):AID1777, AID1785, AID1786, AID1966, AID2133, AID2136, AID2284, AID2285, AID2352]", "type": "functional"}, "[24]": {"biological_target": "T3, Delta-type opioid receptor", "experiment": "SAR Analysis of Antagonists of the DOR Receptor using an Image-Based Assay - Set 2. [Related pubchem assays (depositor defined):AID1777, AID1785, AID1786, AID1966, AID2133, AID2136, AID2284, AID2285, AID2357]", "type": "functional"}}, "note": "Activity calls are given as the source filed them. Unless noted, the calls are words filed in the database; no cut-off is given here.", "data": [{"smiles": "O=C(CSc1nnc(-c2ccccn2)n1Cc1ccco1)c1ccc(Cl)cc1", "values": [{"measurement": "EC50", "setting": "[1]", "value": "> 10 µM (inactive)"}, {"measurement": "EC50", "setting": "[2]", "value": "7.66 µM (active)"}, {"measurement": "EC50", "setting": "Mu-type opioid receptor [3]", "value": "> 32 µM (inactive)"}, {"measurement": "IC50", "setting": "[4]", "value": "> 32 µM (inactive)"}, {"measurement": "IC50", "setting": "Mu-type opioid receptor [5]", "value": "> 32 µM (inactive)"}, {"measurement": "IC50", "setting": "[6]", "value": "> 32 µM (inactive)"}, {"measurement": "EC50", "setting": "[7]", "value": "> 32 µM (inactive)"}]}, {"smiles": "CN[C@@H](C)C(=O)N[C@H](C(=O)N[C@H](C(=O)Nc1cccc2ccccc12)C(C)C)C(C)C", "values": [{"measurement": "IC50", "setting": "[8]", "value": "3.9 µM (active)"}, {"measurement": "IC50", "setting": "[9]", "value": "> 100 µM (inactive)"}]}, {"smiles": "COCCCNC(=O)c1cc2c(=O)n3ccccc3nc2n(C2CCCC2)c1=N", "values": [{"measurement": "EC50", "setting": "Cannabinoid receptor 2 [10]", "value": "2.33 µM (active)"}, {"measurement": "IC50", "setting": "Cannabinoid receptor 2 [11]", "value": "> 32 µM (inactive)"}, {"measurement": "IC50", "setting": "Cannabinoid receptor 1 [12]", "value": "> 32 µM (inactive)"}, {"measurement": "EC50", "setting": "[13]", "value": "> 32 µM (inactive)"}, {"measurement": "IC50", "setting": "[14]", "value": "> 32 µM (inactive)"}, {"measurement": "EC50", "setting": "Cannabinoid receptor 1 [15]", "value": "> 32 µM (inactive)"}, {"measurement": "IC50", "setting": "[16]", "value": "> 32 µM (inactive)"}]}, {"smiles": "Cc1cc(C)c(S(=O)(=O)NCc2ccc(C(=O)NCCN3Cc4ccccc4C3)cc2)c(C)c1", "values": [{"measurement": "EC50", "setting": "[17]", "value": "> 32 µM (inactive)"}, {"measurement": "IC50", "setting": "[18]", "value": "> 32 µM (inactive)"}, {"measurement": "EC50", "setting": "[19]", "value": "> 32 µM (inactive)"}, {"measurement": "IC50", "setting": "Mu-type opioid receptor [20]", "value": "> 32 µM (inactive)"}, {"measurement": "IC50", "setting": "[21]", "value": "> 20 µM (inactive)"}, {"measurement": "EC50", "setting": "[22]", "value": "4.97 µM (active)"}, {"measurement": "EC50", "setting": "Mu-type opioid receptor [23]", "value": "> 32 µM (inactive)"}, {"measurement": "IC50", "setting": "[24]", "value": "13.9 µM (inactive)"}]}]}
